According to patent US20100305055A1, “COMBINATIONS OF POLYENE FUNGICIDE WITH CATIONIC SURFACTANTS” (Laboratorios Miret, S.A., priority 2007, published 2010):
“Also recorded” adds a separate entry of the source.

Columns and labels:
[1] = system: Aspergillus niger; assay: MIC and synergy index of natamycin/LAE solutions; type: cell-based
Protocol: (§1) In this example the influence of the synergism of combinations of LAE and natamycin in the inventive composition has been investigated.
(§2) For that purpose propylene glycol solutions with different concentrations of LAE and natamyin were prepared.
(§3) The effects of these preparations were investigated against the moulds Aspergillus niger, Penicillium caseicolum, Cladosporium cladosporioides and Rhizopus, the bacteria Escherichia coli (ATCC 8739), Salmonella typhimurium (ATCC 14028), Listeria monocytogenes (ATCC 15313), Bacillus subtilis (ATCC 6633) and the yeasts Candida albicans (ATCC 10231) and Saccharomyces cerevisiae (ATCC 9763).
(§4) The table indicates the MIC values found at different relationship between natamycin and LAE, whereby a value for natamycin: LAE 1:1 means the same concentration for both substances in the antimicrobial composition.
(§5) The interaction of the two components of the antimicrobial mixture is calculated according to the method described by Kull et al. (Kull F. C., Eisman P. C., Sylwestrowicz H. D. and Mayer R. L., Applied Microbiology, 1961; 6: 538-541). According to this method the so-called synergy index is calculated according to the following formula:
(§6) Synergy index SI=Qlae/QLAE+Qn/QN.
(§7) The elements used for the calculation of the synergy index according to the above formula have the following meaning: • Qlae=minimum inhibition concentration of LAE in the mixture of LAE and natamycin, • QLAE=minimum inhibition concentration of LAE as single antimicrobial without natamycin, • Qn=minimum inhibition concentration of natamycin in the mixture of LAE and natamycin and • QN=minimum inhibition concentration of natamycin as single antimicrobial without LAE.
(§8) All indicated symbols indicate a particular concentration leading to a particular end point, in this case the inhibition of growth of the microorganisms, so that the selected end point is in fact the minimal inhibitory concentration (MIC).
(§9) When the synergy index is 1, then there is an addition of the effects of the two components.
(§10) Qn: MIC of natamycin in the mixture of natamycin and LAE QN: MIC of natamycin alone Qlae: MIC of LAE in the mixture of natamycin and LAE QLAE: MIC of LAE alone

[2] = system: Candida albicans ATCC 10231; assay: MIC and synergy index of natamycin/LAE solutions; type: cell-based
Protocol: as §1, §2, §3, §4, §5, §6, §7, §8, §9, §10

[3] = system: Cladosporium cladosporioides; assay: MIC and synergy index of natamycin/LAE solutions; type: cell-based
Protocol: as §1, §2, §3, §4, §5, §6, §7, §8, §9, §10

[4] = system: Penicillium caseicolum; assay: MIC and synergy index of natamycin/LAE solutions; type: cell-based
Protocol: as §1, §2, §3, §4, §5, §6, §7, §8, §9, §10

[5] = system: Rhizopus; assay: MIC and synergy index of natamycin/LAE solutions; type: cell-based
Protocol: as §1, §2, §3, §4, §5, §6, §7, §8, §9, §10

[6] = system: Saccharomyces cerevisiae ATCC 9763; assay: MIC and synergy index of natamycin/LAE solutions; type: cell-based
Protocol: as §1, §2, §3, §4, §5, §6, §7, §8, §9, §10

[7] = system: Bacillus subtilis ATCC 6633; assay: MIC and synergy index of natamycin/LAE solutions; type: cell-based
Protocol: as §1, §2, §3, §4, §5, §6, §7, §8, §9, §10
(§11) The MIC values of natamycin alone (QN) reported in tables 5 to 8 corresponds to the maximum value studied. However, the real MIC of natamycin is higher than the maximum values studied (i.e.: 1024, 2048), accordingly the real SI should be lower than the SI reported in the tables.

[8] = system: Escherichia coli ATCC 8739; assay: MIC and synergy index of natamycin/LAE solutions; type: cell-based
Protocol: as §1, §2, §3, §4, §5, §6, §7, §8, §9, §10, §11

[9] = system: Listeria monocytogenes ATCC 15313; assay: MIC and synergy index of natamycin/LAE solutions; type: cell-based
Protocol: as §1, §2, §3, §4, §5, §6, §7, §8, §9, §10, §11

[10] = system: Salmonella typhimurium ATCC 14028; assay: MIC and synergy index of natamycin/LAE solutions; type: cell-based
Protocol: as §1, §2, §3, §4, §5, §6, §7, §8, §9, §10, §11

[11] = system: Penicillum casicolum, Rizopus, Aspergillus niger and Cladosporium cladosporioides; assay: Microbiocidal effect on inoculated cured cheese immersed in baths; type: cell-based; conditions: Lauric arginate 10% bath, 5 seconds immersion; inoculated 4 log CFU/g; 22° C.; up to 15 days; separate treatments; monohydrochloride
Protocol: Cured cheese was purchased from a local producer. The cheese contains cow milk, sheep milk, goat milk, starters, salt, rennet. The minimum amount of fat 55%/dry weight. Minimum 45 dry weight. Lauric arginate-from […] with purity 90% Ethyl-N^α-lauroyl-L-arginate HCl. Natamycin-95% in dry weight commercially available. Inoculums is a mix of Penicillum casicolum, Rizopus, Aspergillus niger and Cladosporium cladosporioides. Spores seeded in Sabouraud Chloramphenirol agar are incubated at 25° C. for 5 days. Spores are scraped of the agar with Ringer broth and diluted in Brain Heart Infusion broth. Brain Heart Infusion broth is incubated at 25° C. for 5 days. Diluted inoculums are mixed at the desire concentration in order to have the mix inoculums. […] The cheese was sliced and cut in equal portions of 5 centimeters of diameter by 5 millimeters wide in sterile surroundings. The portions of cheese were immersed in the bath for 5 seconds. They were dripped and dried for 5 minutes in a sterile surface. After this, each sample was inoculated with Penicillum casicolum, Rizopus, Aspergillus niger and Cladosporium cladosporioides at target concentration of 4 log CFU/g. Natamycin 95% concentrations: two differently concentrated baths of natamycin were prepared: 500 ppm and 1000 ppm. Lauric arginate concentrations: four differently concentrated baths of Lauric arginate were prepared: 0.5%, 1%, 5% and 10%. […]

[12] = Solubility of natamycin in aqueous solution with LAE; type: physicochemical; conditions: 10% of LAE in water
Text: According to the dose level between natamycin and LAE, the total solubility of natamycin was observed. […] This low viscosity improves the application process of the solution in the product desired to be treated.

[13] = cited from earlier work
[14] = value is the maximum value studied, real MIC is higher

CCCCCCCCCCCC(=O)N[C@@H](CCCN=C(N)N)C(=O)OCC.Cl [LAE, ethyl ester of the lauramide of the arginine monohydrochloride]
QLAE: MIC of LAE alone [1]: 128 | QLAE: MIC of LAE alone [2]: 16 | QLAE: MIC of LAE alone [3]: 64 | QLAE: MIC of LAE alone [4]: 256 | QLAE: MIC of LAE alone [5]: 648 | QLAE: MIC of LAE alone [6]: 32 | QLAE: MIC of LAE alone [7]: 16 | QLAE: MIC of LAE alone [8]: 32 | QLAE: MIC of LAE alone [9]: 32 | QLAE: MIC of LAE alone [10]: 32 | inhibitory power / microbiocidal effect on cured cheese [11]: best treatment; also recorded: effective

C[C@@H]1C/C=C/C=C/C=C/C=C/[C@H](O[C@@H]2O[C@H](C)[C@@H](O)[C@H](N)[C@@H]2O)C[C@@H]2O[C@](O)(C[C@@H](O)C[C@H]3O[C@@H]3/C=C/C(=O)O1)C[C@H](O)[C@H]2C(=O)O [natamycin]
QN: MIC of natamycin alone [1]: 2 | QN: MIC of natamycin alone [2]: 2 | QN: MIC of natamycin alone [3]: 1 | QN: MIC of natamycin alone [4]: 1 | QN: MIC of natamycin alone [5]: 4 | QN: MIC of natamycin alone [6]: 2.5 | QN: MIC of natamycin alone [7, 14]: > 2048 | QN: MIC of natamycin alone [8, 14]: > 1024 | QN: MIC of natamycin alone [9, 14]: > 1024 | QN: MIC of natamycin alone [10, 14]: > 2048 | natamycin solubilised [12]: more than 1000 ppm | solubility of natamycin in water [13]: 0.005-0.010 % (w/w)
